# In PubChem BioAssay AID328 (DTP/NCI, 2004):
# Where “and” joins values, the source holds several entries; their conditions need not be identical. Equal values may be shown once. Inconclusive results and toxic doses are left out.
# Test system: BDF1 mice, P388 leukemia ip, median survival T/C
# Assay: NCI In Vivo Anticancer Drug Screen. Data for tumor model P388 Leukemia (intraperitoneal) in B6D2F1 (BDF1) mice
# Conditions: endpoint: median survival time, higher = longer survival
# In short: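 Mice carrying the transplantable tumour receive compound or vehicle. Survival is followed in each arm, and the treated measure is divided by the vehicle measure.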
# [1] = dose: 12.5 mg/kg/injection, schedule: Q01DX009 (ip), vehicle: saline with Tween-80
smiles,measurement,setting,value
COc1cc2cc(c1Cl)N(C)C(=O)C[C@H](OC(=O)[C@H](C)N(C)C(C)=O)[C@]1(C)O[C@H]1[C@H](C)[C@@H]1C[C@@](O)(NC(=O)O1)[C@H](OC)C=C/C=C(\C)C2,T/C,"dose: 1.6 micrograms/kg/injection, schedule: Q01DX009 (ip), vehicle: saline",155 % of control
same,T/C,"dose: 2.0 micrograms/kg/injection, schedule: Q08DX002 (ip), vehicle: saline",104 % of control
same,T/C,"dose: 3.1 micrograms/kg/injection, schedule: Q01DX009 (ip), vehicle: saline",165 % of control
same,T/C,"dose: 4.0 micrograms/kg/injection, schedule: Q08DX002 (ip), vehicle: saline",111 % of control and 117 % of control
same,T/C,"dose: 6.2 micrograms/kg/injection, schedule: Q01DX009 (ip), vehicle: saline",195 % of control
same,T/C,"dose: 8.0 micrograms/kg/injection, schedule: Q08DX002 (ip), vehicle: saline",122 % of control and 123 % of control
same,T/C,"dose: 10.0 micrograms/kg/injection, schedule: Q03HX024 (ip), vehicle: saline",194 % of control
same,T/C,"dose: 12.5 micrograms/kg/injection, schedule: Q01DX009 (ip), vehicle: saline",190 % of control
same,T/C,"dose: 15.0 micrograms/kg/injection, schedule: Q03HX024 (ip), vehicle: saline",238 % of control
same,T/C,"dose: 20.0 micrograms/kg/injection, schedule: Q03HX024 (ip), vehicle: saline",176 % of control
same,T/C,"dose: 25.0 micrograms/kg/injection, schedule: Q01DX009 (ip), vehicle: saline",220 % of control
same,T/C,"dose: 25.0 micrograms/kg/injection, schedule: Q03HX024 (ip), vehicle: saline",188 % of control
same,T/C,"dose: 30.0 micrograms/kg/injection, schedule: Q03HX024 (ip), vehicle: saline",527 % of control
same,T/C,"dose: 32.0 micrograms/kg/injection, schedule: Q08DX002 (ip), vehicle: clinical formulation",191 % of control
same,T/C,"dose: 35.0 micrograms/kg/injection, schedule: Q03HX024 (ip), vehicle: saline",194 % of control
same,T/C,"dose: 40.0 micrograms/kg/injection, schedule: Q03HX024 (ip), vehicle: saline",188 % of control
same,T/C,"dose: 50.0 micrograms/kg/injection, schedule: Q04DX003 (ip), vehicle: clinical formulation",203 % of control
same,T/C,"dose: 54.0 micrograms/kg/injection, schedule: Q04DX003 (ip), vehicle: clinical formulation",192 % of control
same,T/C,"dose: 64.0 micrograms/kg/injection, schedule: Q08DX002 (ip), vehicle: clinical formulation",155 % of control and 169 % of control
same,T/C,"dose: 64.0 micrograms/kg/injection, schedule: Q08DX002 (ip), vehicle: saline",163 % of control
same,T/C,"dose: 90.0 micrograms/kg/injection, schedule: Q04DX003 (ip), vehicle: clinical formulation",200 % of control
same,T/C,"dose: 100.0 micrograms/kg/injection, schedule: Q04DX003 (ip), vehicle: clinical formulation",183 % of control
same,T/C,"dose: 108.0 micrograms/kg/injection, schedule: Q04DX003 (ip), vehicle: saline",172 % of control
same,T/C,"dose: 128.0 micrograms/kg/injection, schedule: Q08DX002 (ip), vehicle: clinical formulation",167 % of control and 182 % of control
same,T/C,"dose: 128.0 micrograms/kg/injection, schedule: Q08DX002 (ip), vehicle: saline",183 % of control and 193 % of control
same,T/C,"dose: 150.0 micrograms/kg/injection, schedule: Q04DX003 (ip), vehicle: clinical formulation",224 % of control
same,T/C,"dose: 180.0 micrograms/kg/injection, schedule: Q04DX003 (ip), vehicle: saline",159 % of control
same,T/C,"dose: 200.0 micrograms/kg/injection, schedule: Q04DX003 (ip), vehicle: clinical formulation",194 % of control
same,T/C,"dose: 250.0 micrograms/kg/injection, schedule: Q04DX003 (ip), vehicle: clinical formulation",224 % of control
same,T/C,"dose: 256.0 micrograms/kg/injection, schedule: Q08DX002 (ip), vehicle: clinical formulation",197 % of control and 204 % of control
same,T/C,"dose: 256.0 micrograms/kg/injection, schedule: Q08DX002 (ip), vehicle: saline",203 % of control and 219 % of control
same,T/C,"dose: 300.0 micrograms/kg/injection, schedule: Q04DX003 (ip), vehicle: saline",180 % of control
same,T/C,"dose: 512.0 micrograms/kg/injection, schedule: Q08DX002 (ip), vehicle: clinical formulation",227 % of control
same,T/C,"dose: 512.0 micrograms/kg/injection, schedule: Q08DX002 (ip), vehicle: saline",272 % of control and 219 % of control
same,T/C,"dose: 1024.0 micrograms/kg/injection, schedule: Q08DX002 (ip), vehicle: clinical formulation",242 % of control
same,T/C,"dose: 1024.0 micrograms/kg/injection, schedule: Q08DX002 (ip), vehicle: saline",88 % of control and 117 % of control
CC(C)=C(B1OC(C)(C)C(C)(C)O1)B1OC(C)(C)C(C)(C)O1,T/C,"dose: 100.0 mg/kg/injection, schedule: Q01DX001 (ip), vehicle: saline with Tween-80",110 % of control
same,T/C,"dose: 200.0 mg/kg/injection, schedule: Q01DX001 (ip), vehicle: saline with Tween-80",105 % of control
same,T/C,"dose: 400.0 mg/kg/injection, schedule: Q01DX001 (ip), vehicle: saline with Tween-80",105 % of control
OP(=S)(c1ccccc1)c1ccccc1,T/C,"dose: 50.0 mg/kg/injection, schedule: Q01DX009 (ip), vehicle: other",110 % of control
same,T/C,"dose: 100.0 mg/kg/injection, schedule: Q01DX009 (ip), vehicle: other",106 % of control
same,T/C,"dose: 200.0 mg/kg/injection, schedule: Q01DX009 (ip), vehicle: other",108 % of control
c1ccc2c[n+]3cc4ccccc4cc3cc2c1,T/C,"dose: 8.75 mg/kg/injection, schedule: Q01DX009 (ip), vehicle: saline",95 % of control
same,T/C,"dose: 12.5 mg/kg/injection, schedule: Q04DX003 (ip), vehicle: saline",91 % of control
same,T/C,"dose: 17.5 mg/kg/injection, schedule: Q01DX009 (ip), vehicle: saline",100 % of control
same,T/C,"dose: 25.0 mg/kg/injection, schedule: Q04DX003 (ip), vehicle: saline",100 % of control
N=c1c2c(C(N)=O)cn(C3OC(CO)C(O)C3O)c2ncn1O (configuration not stated),T/C,"dose: 0.75 mg/kg/injection, schedule: Q01DX009 (ip), vehicle: saline with Tween-80",122 % of control
same,T/C,"dose: 1.5 mg/kg/injection, schedule: Q01DX009 (ip), vehicle: saline with Tween-80",154 % of control
same,T/C,"dose: 2.0 mg/kg/injection, schedule: Q01DX009 (ip), vehicle: saline with Tween-80",180 % of control
same,T/C,"dose: 2.0 mg/kg/injection, schedule: Q04DX003 (ip), vehicle: saline with Tween-80",122 % of control
same,T/C,"dose: 2.9 mg/kg/injection, schedule: Q04DX003 (ip), vehicle: saline with Tween-80",160 % of control
same,T/C,"dose: 4.4 mg/kg/injection, schedule: Q04DX003 (ip), vehicle: saline with Tween-80",117 % of control
same,T/C,"dose: 6.7 mg/kg/injection, schedule: Q04DX003 (ip), vehicle: saline with Tween-80",166 % of control
same,T/C,"dose: 10.0 mg/kg/injection, schedule: Q04DX003 (ip), vehicle: saline with Tween-80",190 % of control
same,T/C,"dose: 15.0 mg/kg/injection, schedule: Q04DX003 (ip), vehicle: saline with Tween-80",123 % of control
C=C1C(=O)OC2C1C(OC(=O)/C(C)=C/CO)C/C(C)=C/CCC1(CO)OC21 (configuration not stated),T/C,"dose: 0.5 mg/kg/injection, schedule: Q01DX009 (ip), vehicle: Klucel (hydroxypropylcellulose) (HPC)",97 % of control
same,T/C,"dose: 1.0 mg/kg/injection, schedule: Q01DX009 (ip), vehicle: Klucel (hydroxypropylcellulose) (HPC)",94 % of control
same,T/C,"dose: 2.0 mg/kg/injection, schedule: Q01DX009 (ip), vehicle: Klucel (hydroxypropylcellulose) (HPC)",101 % of control
same,T/C,"dose: 4.0 mg/kg/injection, schedule: Q01DX009 (ip), vehicle: Klucel (hydroxypropylcellulose) (HPC)",100 % of control
O=C(NC12CC3CC(CC(C3)C1)C2)C(F)(F)F,T/C,"dose: 50.0 mg/kg/injection, schedule: Q01DX009 (ip), vehicle: saline with Tween-80",98 % of control
same,T/C,"dose: 100.0 mg/kg/injection, schedule: Q01DX009 (ip), vehicle: saline with Tween-80",105 % of control
same,T/C,"dose: 200.0 mg/kg/injection, schedule: Q01DX009 (ip), vehicle: saline with Tween-80",102 % of control
O=C1C(Br)=C(Br)C(=O)C1(Br)Br,T/C,"dose: 8.25 mg/kg/injection, schedule: Q01DX009 (ip), vehicle: saline with Tween-80",100 % of control
same,T/C,[1],109 % of control
same,T/C,"dose: 18.75 mg/kg/injection, schedule: Q01DX009 (ip), vehicle: saline with Tween-80",113 % of control
CN(C)c1ccc(N=C2C=CC(=O)C=C2)cc1,T/C,"dose: 3.13 mg/kg/injection, schedule: Q01DX009 (ip), vehicle: saline with Tween-80",107 % of control
same,T/C,"dose: 6.25 mg/kg/injection, schedule: Q01DX009 (ip), vehicle: saline with Tween-80",112 % of control and 117 % of control
same,T/C,[1],110 % of control and 117 % of control
same,T/C,"dose: 25.0 mg/kg/injection, schedule: Q01DX009 (ip), vehicle: saline with Tween-80",118 % of control
OC[C@@H](O)[C@@H](O)CO,T/C,"dose: 100.0 mg/kg/injection, schedule: Q01DX010 (ip), vehicle: saline",90 % of control
same,T/C,"dose: 400.0 mg/kg/injection, schedule: Q01DX010 (ip), vehicle: saline",110 % of control
O=S1(=O)CC(S(=O)(=O)O)C(S(=O)(=O)O)C1 (configuration not stated),T/C,"dose: 50.0 mg/kg/injection, schedule: Q04DX003 (ip), vehicle: Klucel (hydroxypropylcellulose) (HPC)",100 % of control
same,T/C,"dose: 100.0 mg/kg/injection, schedule: Q01DX001 (ip), vehicle: saline",108 % of control
same,T/C,"dose: 100.0 mg/kg/injection, schedule: Q04DX003 (ip), vehicle: Klucel (hydroxypropylcellulose) (HPC)",100 % of control
same,T/C,"dose: 200.0 mg/kg/injection, schedule: Q01DX001 (ip), vehicle: saline",100 % of control
same,T/C,"dose: 200.0 mg/kg/injection, schedule: Q04DX003 (ip), vehicle: Klucel (hydroxypropylcellulose) (HPC)",100 % of control
same,T/C,"dose: 400.0 mg/kg/injection, schedule: Q01DX001 (ip), vehicle: saline",108 % of control
